Literature values in patent publication US20110092493A1, “Dose-controlled transdermal promethazine compositions and methods of use” (priority 2008, published 2011).
Structures can show the parent of a compound that is named as a salt. Where two headings read alike, the source gives them in different places.

How the values were obtained:
[1] = not given; remark: listed apart in the source
[2] = oral administration
[3] = not given; remark: listed apart in the source
[4] = 50 mg applied to the wrist in topical pluronic lecithin organogel, 15 healthy volunteers
[5] = following intramuscular injection
[6] = both 50 mg suppository treatments (generic, brand-name) vs oral syrup (50 mg)
[7] = overall, most common adverse events

SMILES	differences in AUC0-24 (50 mg suppository treatments vs oral syrup (50 mg))	maximum promethazine concentration compared with oral syrup [6]	time to maximum promethazine concentration compared with oral syrup [6]	coefficient of variation for the area under the plasma concentration-versus-time curve (AUC) ([1]; 50 mg suppository)	mean AUC from 0 to 24 hours (AUC0-24) ([1]; 50 mg suppository) [ng·h/mL]	coefficient of variation for the area under the plasma concentration-versus-time curve (AUC) ([1]; oral syrup (50 mg))	mean AUC from 0 to 24 hours (AUC0-24) ([1]; oral syrup (50 mg)) [ng·h/mL]	fraction of dose absorbed ([2]; on average) [%]	absolute bioavailability ([2]; limited by first-pass clearance) [%]	adverse event: somnolence ([3]; 25 mg suppository) [%]	adverse event: somnolence ([3]; 50 mg oral) [%]	adverse event: somnolence ([3]; 50 mg suppository) [%]	adverse event: headache [3, 7] [%]	adverse event: somnolence [3, 7] [%]	drowsiness, % of subjects [4] [%]	sedation, % of subjects [4] [%]	plasma levels associated with adverse effects [5] [ng/mL]
CC(CN1c2ccccc2Sc2ccccc21)N(C)C (centres unmarked) [promethazine hydrochloride]	no significant differences	lower	longer	–	–	–	–	–	–	–	–	–	–	–	–	–	–
CC(CN1c2ccccc2Sc2ccccc21)N(C)C (centres unmarked) [promethazine]	–	–	–	greater than 84%	168	greater than 84%	268	88	25	5	22	17	28	35	73	50	48
